From the METLIN SMRT retention time set (Domingo-Almenara et al. 2019)

Test: gradient 5% acetonitrile 3 min, to 50% in 2 min, to 85% in 15 min, held 3 min, 100 µL/min
Conditions: column: Zorbax Extend-C18 2.1 x 50 mm; eluents: water / acetonitrile, 0.1% formic acid
Outline: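 Pure standards were analyzed in mixtures of ~100 molecules using HPLC coupled to a quadrupole time-of-flight mass spectrometer, in both positive and negative ionization mode. Separation used a Zorbax Extend-C18 column (2.1 × 50 mm, 1.8 μm) at 100 μL/min, with water and acetonitrile each containing 0.1% formic acid. Dead and dwell volumes were 40 μL and 900 μL, and data were collected over 3 months. Retention time was read from computationally picked adduct peaks, each inspected manually.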

## CCOC(=O)c1ccc2nc(C(F)(F)F)nc(NCCCc3ccccc3)c2c1
  RP-LC retention time: 1300 s

## Cc1cccc(Cn2nc3n(CCC(=O)NC(C)C)c(=O)c4ccccc4n3c2=O)c1
  RP-LC retention time: 851 s

## O=C(CSc1nnc(-c2cccc(S(=O)(=O)N3CCOCC3)c2)o1)c1ccccc1
  RP-LC retention time: 847 s

## O=C(NCCCc1ccccc1)C1CCN(c2cnn(Cc3ccccc3)c(=O)c2)CC1
  RP-LC retention time: 818 s

## Nc1ccc(/C=C/c2ccc3ncccc3c2)cc1
  RP-LC retention time: 643 s

## COc1ccc2[nH]cc(CCNC(=O)c3cn(-c4ccc(F)cc4)nn3)c2c1
  RP-LC retention time: 868 s

## Cc1cc(=O)n(CC(=O)Nc2ccc3c(c2)OCO3)c(-c2ccc(F)cc2)n1
  RP-LC retention time: 974 s

## CC(=O)N1CCc2nn(CC(=O)Nc3cccc(Br)c3)c(=O)cc2C1
  RP-LC retention time: 666 s

## CC(C)NC(=O)c1nc(N2CCSCC2)c2cnn(C)c2n1
  RP-LC retention time: 705 s

## Cc1ccc(-n2nc(C)c3c(=O)n(CC(=O)NCc4ccccc4Cl)ccc32)cc1
  RP-LC retention time: 872 s

## COC(=O)c1ccccc1NC1=NS(=O)(=O)c2ccccc21
  RP-LC retention time: 934 s

## Cc1ccc(-c2nnc(Cc3nc(-c4ccccc4F)no3)o2)cc1C
  RP-LC retention time: 1040 s

## CCCN(Cc1ccc(OC)cc1)Cc1cc(=O)n2ccc(C)cc2n1
  RP-LC retention time: 628 s

## Cc1ccc(-c2noc(Cc3nnc(-c4ccccc4)o3)n2)cc1C
  RP-LC retention time: 1100 s

## O=C(Cc1ccc(F)cc1)Nc1ccc2cn[nH]c2c1
  RP-LC retention time: 688 s

## COc1ccc(S(=O)(=O)N2CCN(c3cc(C)nc(Nc4ccc(C)cc4)n3)CC2)cc1Cl
  RP-LC retention time: 801 s

## CC(C)c1ccc(S(=O)(=O)c2cnc(N3CCC(C(N)=O)(N4CCCCC4)CC3)nc2N)cc1
  RP-LC retention time: 677 s

## Cc1ccc(C)c(N2CCN(Cc3nc(-c4ccc(N5CCC(C)CC5)nc4)no3)CC2)c1
  RP-LC retention time: 1270 s

## CCCCOC(=O)c1[nH]c2c(c1C)C(=O)CC(c1cc(OC)c(OC)c(OC)c1)C2 (configuration not stated)
  RP-LC retention time: 1020 s

## Cc1ccccc1CC(=O)NC1CCN(c2ccc(F)cc2)C1=O (configuration not stated)
  RP-LC retention time: 810 s

## COc1ccc(N2CCN(C(=O)C3CCCN(c4nnc5cccc(C)n45)C3)CC2)cc1 (configuration not stated)
  RP-LC retention time: 661 s

## Cc1cc(C)n(-c2ccnc(N3CCC(C(=O)NCCC(C)C)CC3)n2)n1
  RP-LC retention time: 836 s

## COc1ccc(C)cc1NC(=O)N1CCC(c2nc3ccncc3n2CC(C)C)C1 (configuration not stated)
  RP-LC retention time: 586 s

## Cc1noc(/C=C/c2ccc(S(=O)(=O)N3CCOCC3)s2)c1NC(=O)C1CC1
  RP-LC retention time: 778 s

## COCC(=O)N(CC(=O)N1CCc2sccc2C1COc1ccc(Cl)cc1)CC1CCCO1 (configuration not stated)
  RP-LC retention time: 871 s

## CCOCCCNC(=O)c1ccc2c(c1)CCCN2S(C)(=O)=O
  RP-LC retention time: 706 s

## O=C(NCc1ccccc1Cl)c1nnc(-c2ccc(S(=O)(=O)N3CCCCC3)cc2)o1
  RP-LC retention time: 1030 s

## O=C(COc1ccc(F)cc1)Nc1ccc2c(c1)N(C(=O)c1ccco1)CCC2
  RP-LC retention time: 712 s

## Cc1cc(=O)n2nc(-c3ccc(Cl)cc3)nc2n1CC(=O)NC(C)C
  RP-LC retention time: 744 s

## CCOC(=O)Cc1csc(NC(=O)CSc2nc(C)nc3sc4c(c23)CCC4)n1
  RP-LC retention time: 998 s

## CCn1c(=O)c2ccn(CC(=O)NCc3cccnc3)c2n(CC)c1=O
  RP-LC retention time: 568 s

## CN(Cc1ccoc1)C(=O)Nc1ccccc1
  RP-LC retention time: 785 s

## Fc1ccc2nc(Nc3nc(-c4ccncc4)cs3)sc2c1
  RP-LC retention time: 588 s

## O=C(NCCc1c[nH]c2ccccc12)c1ccc(N2C(=O)CCS2(=O)=O)cc1
  RP-LC retention time: 728 s

## O=C(N[C@H]1C[C@@H]2C[C@H]1CN2C(=O)c1ccccc1Cl)c1ccccc1
  RP-LC retention time: 757 s

## Cn1ncc(Br)c1C(=O)N1CCCC1c1ccc(F)cc1 (configuration not stated)
  RP-LC retention time: 832 s

## COc1cccc(-c2noc(CN3C(=O)COc4cc(Cl)ccc43)n2)c1
  RP-LC retention time: 1090 s

## CCCc1cc(N2CCN(C(=O)Cc3ccsc3)CC2)nc2nnc(C)n12
  RP-LC retention time: 627 s

## Cc1cccc(NS(=O)(=O)c2ccc(-c3nnc(C4CCC4)o3)o2)c1
  RP-LC retention time: 924 s

## Cc1ccccc1Cn1c(CN2CCC(C(=O)N(C)Cc3ccco3)CC2)cc2ccccc21
  RP-LC retention time: 816 s

## COCCCNC(=O)c1cc2c(n(-c3ccc(C(F)(F)F)cc3)c1=O)CCCC2=O
  RP-LC retention time: 823 s

## Cc1ccc(S(=O)(=O)N2CCCC2c2nc(-c3ccc(F)cc3)no2)cc1Cl (configuration not stated)
  RP-LC retention time: 1230 s

## O=C(CCCc1ccccc1)N1C[C@H]2CNC(=O)[C@]23CCCC[C@@H]13
  RP-LC retention time: 770 s

## O=C(Cc1csc(-c2ccccc2)n1)Nc1nc(-c2ccccc2)cs1
  RP-LC retention time: 1130 s

## COc1cccc(Cn2c(=O)c3sccc3n(Cc3nc(-c4cccc(C)c4)no3)c2=O)c1
  RP-LC retention time: 1160 s

## CCOCCCNC(=O)c1nc(Nc2ccccc2)c2ccccc2n1
  RP-LC retention time: 1130 s

## O=C(Cc1ccccc1Br)N1CCN(c2cc(-c3cccs3)[nH]n2)CC1
  RP-LC retention time: 837 s

## CCCn1ncc(N2CCC(C(=O)NCCc3cccs3)CC2)cc1=O
  RP-LC retention time: 714 s

## Fc1ccc(-c2noc(-c3nc(-c4ccncc4)no3)n2)cc1F
  RP-LC retention time: 1040 s

## OC(CN1CCN(c2ccccc2)CC1)c1ccc2c(c1)OCO2 (configuration not stated)
  RP-LC retention time: 630 s

## CC(C)c1c(C2CCN(C(=O)c3cc(F)ccc3F)CC2)noc1N
  RP-LC retention time: 774 s

## COc1ncccc1CNC(=O)c1cccn1C
  RP-LC retention time: 704 s

## COC(=O)c1c(-c2ccccc2)noc1NCc1ccc(C)o1
  RP-LC retention time: 989 s

## C=CCc1ccc(OCC(O)CN2C(C)CCCC2C)c(OC)c1 (configuration not stated)
  RP-LC retention time: 603 s

## Cn1ncc2c3ccccc3n(CCCC(=O)NCCN3CCCCC3)c2c1=O
  RP-LC retention time: 618 s

## CC(C)(C(N)=O)c1ccccc1
  RP-LC retention time: 712 s

## CCCC(=O)N1CCC(C(=O)Nc2nnc(C)s2)CC1
  RP-LC retention time: 590 s

## CS(=O)(=O)Nc1ccc(-c2noc(CN3C(=O)COc4ccc(Cl)cc43)n2)cc1
  RP-LC retention time: 879 s

## Cc1ccc(CNC(=O)c2cc(C)n3nc(-c4ccccn4)cc3n2)cc1
  RP-LC retention time: 924 s

## CSc1nnc(-c2cccc(S(=O)(=O)N3CCCC3)c2)o1
  RP-LC retention time: 770 s

## O=C(Nc1ccccc1)C1CCN(S(=O)(=O)c2cc(-c3noc(C4CCC4)n3)cs2)CC1
  RP-LC retention time: 1080 s

## O=C(NCc1ccc(Br)cc1)C(=O)c1c[nH]c2ccccc12
  RP-LC retention time: 995 s

## Cn1cnc(S(=O)(=O)N2CCC(c3noc(-c4ccccn4)n3)C2)c1 (configuration not stated)
  RP-LC retention time: 622 s

## CC1(C)CC(=O)C2=C(C1)Nc1ccccc1N(CC(=O)Nc1ccccc1)C2c1ccc(F)cc1 (configuration not stated)
  RP-LC retention time: 938 s

## Cc1ccc(-c2nn3c(N4CCN(c5ccccn5)CC4)cc(C)nc3c2C)cc1
  RP-LC retention time: 613 s

## CC(CCNC(=O)c1nnc(-c2ccc(S(=O)(=O)N3CCCC3)cc2)o1)N1CCCCCC1 (configuration not stated)
  RP-LC retention time: 644 s

## Cc1nnc(NC(=O)c2cccc(C(F)(F)F)c2)s1
  RP-LC retention time: 749 s
